According to ChEMBL document CHEMBL1132568, “Synthesis, pharmacological evaluation, and structure-activity relationship and quantitative structure-activity relationship studies on novel derivatives of 2,4-diamino-6,7-dimethoxyquinazoline alpha1-adrenoceptor antagonists” (J Med Chem, 1999):
pIC50, pKi: −log10 of the molar value.

Legend:
[1] = target: T1, 5-hydroxytryptamine receptor 1A (Rattus norvegicus, UniProt P19327); assay: Inhibitory concentration against 5-hydroxytryptamine 1A receptor (Inactive at >1000 nM concentration)
T1 sequence (P19327 whole entry): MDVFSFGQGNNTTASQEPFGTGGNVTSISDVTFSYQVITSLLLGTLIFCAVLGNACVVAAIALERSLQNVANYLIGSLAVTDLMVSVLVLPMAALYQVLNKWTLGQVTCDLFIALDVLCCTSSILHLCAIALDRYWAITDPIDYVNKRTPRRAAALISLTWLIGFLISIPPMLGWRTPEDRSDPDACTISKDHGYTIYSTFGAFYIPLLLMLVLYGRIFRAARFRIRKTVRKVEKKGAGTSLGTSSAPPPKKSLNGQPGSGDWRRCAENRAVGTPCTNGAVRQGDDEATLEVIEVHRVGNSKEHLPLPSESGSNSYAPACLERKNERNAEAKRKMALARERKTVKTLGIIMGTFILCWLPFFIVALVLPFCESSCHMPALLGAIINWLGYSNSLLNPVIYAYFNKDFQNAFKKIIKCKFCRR

[2] = target: 5-hydroxytryptamine receptor 2A (Rattus norvegicus, UniProt P14842); assay: Inhibitory concentration against 5-hydroxytryptamine 2A receptor (Inactive at >1000 nM concentration)
[3] = target: T2, Adrenergic receptor alpha-1 (Rattus norvegicus, UniProt P15823+P23944+P43140); assay: Inhibition of Alpha-1 adrenergic receptor in rat cortex membrane; type: cell membranes
T2 sequence (P15823 whole entry): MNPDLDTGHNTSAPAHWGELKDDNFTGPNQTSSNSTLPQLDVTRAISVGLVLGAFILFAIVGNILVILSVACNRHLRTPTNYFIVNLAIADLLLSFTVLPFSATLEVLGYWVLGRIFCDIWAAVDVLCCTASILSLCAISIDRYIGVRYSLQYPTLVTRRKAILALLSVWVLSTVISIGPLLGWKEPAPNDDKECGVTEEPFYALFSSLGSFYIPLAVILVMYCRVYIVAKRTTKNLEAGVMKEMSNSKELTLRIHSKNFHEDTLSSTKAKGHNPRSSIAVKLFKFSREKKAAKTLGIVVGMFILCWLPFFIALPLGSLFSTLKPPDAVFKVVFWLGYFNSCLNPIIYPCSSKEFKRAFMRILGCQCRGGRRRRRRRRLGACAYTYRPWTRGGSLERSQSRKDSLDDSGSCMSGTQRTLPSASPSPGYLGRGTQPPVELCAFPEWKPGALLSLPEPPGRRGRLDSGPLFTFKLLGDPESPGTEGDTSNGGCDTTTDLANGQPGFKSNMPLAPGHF
T2 sequence (P23944 whole entry): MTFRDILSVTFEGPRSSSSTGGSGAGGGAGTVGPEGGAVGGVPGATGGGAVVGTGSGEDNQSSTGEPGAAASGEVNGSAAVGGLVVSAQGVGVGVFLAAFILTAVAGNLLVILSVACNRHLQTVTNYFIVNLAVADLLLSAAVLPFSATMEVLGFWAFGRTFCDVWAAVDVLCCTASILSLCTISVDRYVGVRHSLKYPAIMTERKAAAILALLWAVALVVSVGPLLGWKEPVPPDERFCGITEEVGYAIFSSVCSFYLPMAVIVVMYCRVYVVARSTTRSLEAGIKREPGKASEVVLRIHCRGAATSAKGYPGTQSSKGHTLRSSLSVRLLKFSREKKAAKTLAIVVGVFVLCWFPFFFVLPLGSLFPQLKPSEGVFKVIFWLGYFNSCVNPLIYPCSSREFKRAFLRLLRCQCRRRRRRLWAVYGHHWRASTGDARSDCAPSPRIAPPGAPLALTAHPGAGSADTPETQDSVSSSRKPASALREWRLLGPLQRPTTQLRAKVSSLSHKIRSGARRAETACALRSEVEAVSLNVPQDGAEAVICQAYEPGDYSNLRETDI
T2 sequence (P43140 whole entry): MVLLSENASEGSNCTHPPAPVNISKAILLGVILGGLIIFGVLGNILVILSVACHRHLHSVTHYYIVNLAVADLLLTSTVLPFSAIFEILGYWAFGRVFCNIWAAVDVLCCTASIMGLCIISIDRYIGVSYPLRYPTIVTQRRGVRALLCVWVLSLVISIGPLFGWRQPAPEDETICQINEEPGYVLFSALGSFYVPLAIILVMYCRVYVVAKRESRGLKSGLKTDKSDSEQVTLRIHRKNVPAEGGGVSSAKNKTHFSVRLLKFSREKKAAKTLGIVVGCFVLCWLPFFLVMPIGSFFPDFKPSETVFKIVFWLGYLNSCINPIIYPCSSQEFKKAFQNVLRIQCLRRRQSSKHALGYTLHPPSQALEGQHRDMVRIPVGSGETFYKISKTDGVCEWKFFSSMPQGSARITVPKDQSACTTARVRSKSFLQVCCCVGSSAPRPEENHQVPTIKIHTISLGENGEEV

[4] = target: T3, Adrenergic receptor alpha-2 (Rattus norvegicus, UniProt P22086+P19328+P22909); assay: Inhibitory concentration against Alpha-2 adrenergic receptor; type: protein assay
T3 sequence (P22086 whole entry): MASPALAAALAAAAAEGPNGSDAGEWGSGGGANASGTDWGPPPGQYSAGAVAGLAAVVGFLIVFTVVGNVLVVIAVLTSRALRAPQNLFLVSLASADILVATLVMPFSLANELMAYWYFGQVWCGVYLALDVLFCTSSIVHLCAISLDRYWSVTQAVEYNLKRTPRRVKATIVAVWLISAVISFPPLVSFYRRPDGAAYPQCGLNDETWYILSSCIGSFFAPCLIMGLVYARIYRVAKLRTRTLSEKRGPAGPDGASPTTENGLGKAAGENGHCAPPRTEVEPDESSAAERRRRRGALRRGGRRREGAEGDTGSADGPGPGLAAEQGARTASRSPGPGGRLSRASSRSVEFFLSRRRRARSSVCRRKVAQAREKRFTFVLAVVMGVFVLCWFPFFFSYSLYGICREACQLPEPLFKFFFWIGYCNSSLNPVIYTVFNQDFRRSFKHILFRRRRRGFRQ
T3 sequence (P19328 whole entry): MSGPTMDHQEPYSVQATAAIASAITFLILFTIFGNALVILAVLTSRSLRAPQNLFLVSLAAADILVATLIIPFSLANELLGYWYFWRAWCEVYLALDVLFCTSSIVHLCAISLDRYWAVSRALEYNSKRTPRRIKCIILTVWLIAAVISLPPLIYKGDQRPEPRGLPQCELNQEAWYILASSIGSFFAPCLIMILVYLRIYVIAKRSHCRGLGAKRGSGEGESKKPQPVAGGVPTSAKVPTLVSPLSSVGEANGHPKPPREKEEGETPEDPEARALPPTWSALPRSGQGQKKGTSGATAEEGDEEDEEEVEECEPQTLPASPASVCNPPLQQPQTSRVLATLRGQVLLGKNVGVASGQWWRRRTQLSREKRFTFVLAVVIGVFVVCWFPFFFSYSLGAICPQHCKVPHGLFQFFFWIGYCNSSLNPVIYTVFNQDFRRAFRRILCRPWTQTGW
T3 sequence (P22909 whole entry): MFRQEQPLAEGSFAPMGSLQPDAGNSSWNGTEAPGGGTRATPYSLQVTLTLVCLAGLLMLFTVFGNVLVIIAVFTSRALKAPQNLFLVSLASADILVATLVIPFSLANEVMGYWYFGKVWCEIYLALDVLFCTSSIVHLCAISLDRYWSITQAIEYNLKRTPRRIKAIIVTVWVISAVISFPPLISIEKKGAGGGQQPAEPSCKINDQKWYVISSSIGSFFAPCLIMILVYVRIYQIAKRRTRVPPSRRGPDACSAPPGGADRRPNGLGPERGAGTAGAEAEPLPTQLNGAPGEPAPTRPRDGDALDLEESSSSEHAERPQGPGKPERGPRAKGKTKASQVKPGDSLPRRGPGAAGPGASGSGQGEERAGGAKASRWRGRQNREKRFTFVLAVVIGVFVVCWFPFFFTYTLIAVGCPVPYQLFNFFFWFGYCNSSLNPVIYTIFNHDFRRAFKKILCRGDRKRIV

[5] = target: T4, Alpha-1A adrenergic receptor (Rattus norvegicus, UniProt P43140); assay: The binding affinity towards Alpha-1A adrenergic receptor in the COS cell line.; type: cell-based
T4 sequence (P43140 whole entry): T2 sequence (P43140 whole entry)

[6] = target: D(2) dopamine receptor (Rattus norvegicus, UniProt P61169); assay: Inhibitory concentration against Dopamine receptor D2 (Inactive at >1000 nM concentration)
[7] = target: Alpha-1D adrenergic receptor (Rattus norvegicus); assay: The binding affinity towards Alpha-1D adrenergic receptor in the COS cell line.
[8] = target: Alpha-1B adrenergic receptor (non-human animal clone); assay: The binding affinity towards Alpha-1B adrenergic receptor in the COS cell line.
[9] = system: Canis familiaris; assay: In vivo hypotensive effect(DBP) in dog after intravenous administration.; type: functional, Canis lupus familiaris
[10] = system: Canis familiaris; assay: In vivo effect on urethral contractility (UP) of dog after intravenous administration.; type: functional, Canis lupus familiaris, Urethra
[11] = target: T1, 5-hydroxytryptamine receptor 1A; assay: Inhibition concentration against 5-hydroxytryptamine 1A receptor
[12] = system: Canis familiaris; assay: Ratio of the in vivo effects(DBP/UP) in the dog model after intravenous administration.; type: functional, Canis lupus familiaris

D(2) dopamine receptor, sequence (P61169 whole entry): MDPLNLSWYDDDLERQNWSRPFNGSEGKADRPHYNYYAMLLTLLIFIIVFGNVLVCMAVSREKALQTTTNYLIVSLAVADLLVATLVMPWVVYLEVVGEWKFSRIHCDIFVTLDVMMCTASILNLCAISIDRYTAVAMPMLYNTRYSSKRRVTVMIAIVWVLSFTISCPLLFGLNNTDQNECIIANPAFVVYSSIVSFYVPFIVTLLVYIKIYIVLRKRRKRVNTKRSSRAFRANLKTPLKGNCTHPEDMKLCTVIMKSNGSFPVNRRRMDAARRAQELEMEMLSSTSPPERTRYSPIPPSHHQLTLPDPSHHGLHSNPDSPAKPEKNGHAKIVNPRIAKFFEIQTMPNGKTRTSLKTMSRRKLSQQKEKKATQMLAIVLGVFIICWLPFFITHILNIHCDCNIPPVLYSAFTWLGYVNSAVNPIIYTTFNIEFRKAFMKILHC
5-hydroxytryptamine receptor 2A, sequence (P14842 whole entry): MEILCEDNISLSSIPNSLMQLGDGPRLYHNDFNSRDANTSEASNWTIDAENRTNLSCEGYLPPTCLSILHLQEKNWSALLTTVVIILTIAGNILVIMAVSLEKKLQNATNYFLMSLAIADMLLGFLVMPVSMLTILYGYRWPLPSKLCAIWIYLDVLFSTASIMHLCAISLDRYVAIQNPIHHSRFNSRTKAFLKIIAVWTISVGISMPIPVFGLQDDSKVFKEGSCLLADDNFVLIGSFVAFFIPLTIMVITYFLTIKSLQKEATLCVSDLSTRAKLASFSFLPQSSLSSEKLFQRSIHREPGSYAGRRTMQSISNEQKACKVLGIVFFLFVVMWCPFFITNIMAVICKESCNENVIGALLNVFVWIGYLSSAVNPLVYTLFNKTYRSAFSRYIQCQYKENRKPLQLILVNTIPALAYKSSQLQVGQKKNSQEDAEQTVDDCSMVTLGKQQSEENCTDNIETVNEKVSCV

Row | Compound | pIC50 [1] | pIC50 [2] | IC50 [3] [nM] | IC50 [4] [nM] | pKi [5] | pIC50 [6] | pKi [7] | pKi [8] | pIC50 [11] | ED25 [9] [mg/kg] | ED50 [10] [mg/kg] | DBP/UP ratio [12]
1 | COc1cc2nc(N3CCN(C(=O)COc4ccccc4OC)CC3)nc(N)c2cc1OC |  | < 6.00 |  | > 1000 |  | < 6.00 |  |  | 6.77 |  |  | 
2 | COc1cc2nc(N3CCN(C(=O)CCC(=O)c4ccccc4)CC3)nc(N)c2cc1OC | < 6.00 | < 6.00 | 15 | > 1000 | 8.25 | < 6.00 |  |  |  | 0.132 | 0.035 | 
3 | COc1cc2nc(N3CCN(C(=O)CC(=O)c4ccccc4)CC3)nc(N)c2cc1OC | < 6.00 | < 6.00 | 7.2 | > 1000 | 7.96 | < 6.00 | 8.09 | 8.27 |  | 0.0081 | 0.0106 | 0.7

Now from value to molecule, other results behind:

Row | pIC50 [1] | pIC50 [2] | IC50 [3] [nM] | IC50 [4] [nM] | pKi [5] | pIC50 [6] | pKi [7] | pKi [8] | pIC50 [11] | Compound | ED25 [9] [mg/kg] | ED50 [10] [mg/kg] | DBP/UP ratio [12]
4 | < 6.00 | < 6.00 | 123 | > 1000 | 6.81 | < 6.00 | 6.95 | 7.83 |  | COc1cc2nc(N3CCN(C(=O)C(C)Oc4c(OC)cccc4C(C)C)CC3)nc(N)c2cc1OC (centres undefined) |  |  | 
5 | < 6.00 | < 6.00 | 1.4 | > 1000 | 8.83 | < 6.00 |  |  |  | COc1cc2nc(N3CCN(C(=O)CC(c4ccccc4)c4ccccc4)CC3)nc(N)c2cc1OC | 0.023 | 0.031 | 
